Values of other authors in patent US8617611B2, “Polymeric compositions comprising therapeutic agents in crystalline phases, and methods of forming the same” (Cordis Corporation, priority 2005, dated 2013).

COc1ccc(/C=C/C(=O)Nc2ccccc2C(=O)O)cc1OC [Tranilast]
solubility in dimethyl sulfoxide (DMSO) (DMSO): soluble
solubility in other solvents such as methylene chloride (methylene chloride): not soluble
